Experiments:
EGFR wild type (EGFR WT) = EGFR wild type (EGFR WT) (Homo sapiens (Human), UniProt P00533); experiment: Cellular Phosphorylation Assay, Assay 5 (EGF-stimulated EGFR phosphorylation, NIH 3T3 cells); format: cell-based
ErbB2 WT = ErbB2 WT (Homo sapiens (Human), UniProt P04626); experiment: ErbB Enzyme Assay (HTRF KinEASE-TK), Assay 2; format: biochemical
EGFR = EGFR (Homo sapiens (Human), UniProt P00533); experiment: ErbB Enzyme Assay (HTRF KinEASE-TK), Assay 3; format: biochemical
[1] = target: ErbB2 with Exon 20 YVMA insertion (HER2-YVMA) (Homo sapiens (Human), UniProt P04626, INS775YVMA); experiment: Cellular Phosphorylation Assay, Assay 4 (constitutive ErbB2 phosphorylation, NIH 3T3 cells); format: cell-based
Chain of ErbB2 with Exon 20 YVMA insertion (HER2-YVMA) (P04626 other isoform, or with tags, fused parts or gaps ins YVMA behind 775): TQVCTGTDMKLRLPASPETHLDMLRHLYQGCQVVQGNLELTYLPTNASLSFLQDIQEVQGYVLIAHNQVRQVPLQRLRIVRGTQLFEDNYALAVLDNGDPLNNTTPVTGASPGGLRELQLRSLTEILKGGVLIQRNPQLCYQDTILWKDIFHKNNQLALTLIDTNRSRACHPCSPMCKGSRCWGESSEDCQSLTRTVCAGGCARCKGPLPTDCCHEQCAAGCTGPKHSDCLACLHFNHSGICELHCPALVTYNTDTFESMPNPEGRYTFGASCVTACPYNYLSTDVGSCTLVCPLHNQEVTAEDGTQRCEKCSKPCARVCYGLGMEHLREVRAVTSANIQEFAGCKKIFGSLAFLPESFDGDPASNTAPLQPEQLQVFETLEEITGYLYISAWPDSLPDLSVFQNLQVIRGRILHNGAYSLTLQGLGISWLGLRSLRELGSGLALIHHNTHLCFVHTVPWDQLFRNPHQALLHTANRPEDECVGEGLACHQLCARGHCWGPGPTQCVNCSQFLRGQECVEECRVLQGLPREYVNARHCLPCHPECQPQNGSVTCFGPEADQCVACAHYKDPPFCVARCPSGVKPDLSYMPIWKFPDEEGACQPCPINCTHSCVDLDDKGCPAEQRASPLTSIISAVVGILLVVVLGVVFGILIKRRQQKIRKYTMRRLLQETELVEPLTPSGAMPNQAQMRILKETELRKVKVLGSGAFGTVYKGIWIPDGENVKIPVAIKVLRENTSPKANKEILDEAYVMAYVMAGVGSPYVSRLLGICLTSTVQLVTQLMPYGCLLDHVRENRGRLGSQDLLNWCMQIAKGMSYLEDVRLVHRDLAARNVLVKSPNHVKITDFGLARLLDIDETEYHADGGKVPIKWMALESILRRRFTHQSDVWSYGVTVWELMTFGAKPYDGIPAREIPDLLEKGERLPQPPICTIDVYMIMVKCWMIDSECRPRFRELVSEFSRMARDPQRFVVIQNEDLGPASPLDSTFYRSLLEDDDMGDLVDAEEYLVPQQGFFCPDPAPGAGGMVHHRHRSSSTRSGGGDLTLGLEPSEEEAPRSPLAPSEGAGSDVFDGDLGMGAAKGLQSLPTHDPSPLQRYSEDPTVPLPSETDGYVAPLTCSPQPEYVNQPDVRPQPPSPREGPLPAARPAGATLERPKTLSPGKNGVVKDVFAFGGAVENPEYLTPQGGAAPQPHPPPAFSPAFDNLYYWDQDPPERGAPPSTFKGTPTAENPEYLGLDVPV

[2] = EGF-stimulated EGFR WT phosphorylation
[3] = cellular EGFR WT phosphorylation, EGF-stimulated
[4] = cellular ErbB2 YVMA phosphorylation

Chain of ErbB2 WT (P04626 23-1255): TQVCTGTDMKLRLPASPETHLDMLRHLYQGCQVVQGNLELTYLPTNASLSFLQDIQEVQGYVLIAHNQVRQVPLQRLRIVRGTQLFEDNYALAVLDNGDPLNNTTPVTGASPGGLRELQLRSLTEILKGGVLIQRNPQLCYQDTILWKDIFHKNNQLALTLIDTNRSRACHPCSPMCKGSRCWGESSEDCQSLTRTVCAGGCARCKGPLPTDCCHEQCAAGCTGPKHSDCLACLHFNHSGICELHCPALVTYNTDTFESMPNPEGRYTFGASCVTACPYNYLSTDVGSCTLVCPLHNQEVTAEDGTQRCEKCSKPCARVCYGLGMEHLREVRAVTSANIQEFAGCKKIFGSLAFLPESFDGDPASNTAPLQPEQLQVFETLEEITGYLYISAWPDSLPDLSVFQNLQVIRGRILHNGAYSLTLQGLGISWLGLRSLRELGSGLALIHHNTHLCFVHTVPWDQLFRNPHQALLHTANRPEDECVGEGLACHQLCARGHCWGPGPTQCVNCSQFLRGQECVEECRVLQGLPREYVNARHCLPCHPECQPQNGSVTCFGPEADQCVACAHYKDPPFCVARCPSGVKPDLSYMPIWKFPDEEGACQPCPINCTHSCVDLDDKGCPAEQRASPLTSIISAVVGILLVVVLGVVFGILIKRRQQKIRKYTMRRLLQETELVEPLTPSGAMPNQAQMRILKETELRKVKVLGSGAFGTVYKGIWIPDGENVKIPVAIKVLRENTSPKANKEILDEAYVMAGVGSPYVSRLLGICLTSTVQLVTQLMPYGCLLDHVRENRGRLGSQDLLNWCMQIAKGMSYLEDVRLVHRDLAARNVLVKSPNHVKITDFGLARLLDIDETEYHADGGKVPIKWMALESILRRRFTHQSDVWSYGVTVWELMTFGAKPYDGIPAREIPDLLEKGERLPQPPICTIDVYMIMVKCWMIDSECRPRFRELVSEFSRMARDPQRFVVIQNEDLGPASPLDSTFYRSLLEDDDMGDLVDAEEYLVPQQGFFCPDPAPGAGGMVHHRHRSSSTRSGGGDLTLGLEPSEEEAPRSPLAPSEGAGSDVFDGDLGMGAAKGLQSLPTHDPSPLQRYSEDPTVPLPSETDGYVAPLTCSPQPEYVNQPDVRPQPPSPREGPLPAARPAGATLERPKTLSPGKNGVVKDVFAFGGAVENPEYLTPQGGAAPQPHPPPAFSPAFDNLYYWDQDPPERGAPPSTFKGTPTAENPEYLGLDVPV
Chain of EGFR (P00533 25-1210): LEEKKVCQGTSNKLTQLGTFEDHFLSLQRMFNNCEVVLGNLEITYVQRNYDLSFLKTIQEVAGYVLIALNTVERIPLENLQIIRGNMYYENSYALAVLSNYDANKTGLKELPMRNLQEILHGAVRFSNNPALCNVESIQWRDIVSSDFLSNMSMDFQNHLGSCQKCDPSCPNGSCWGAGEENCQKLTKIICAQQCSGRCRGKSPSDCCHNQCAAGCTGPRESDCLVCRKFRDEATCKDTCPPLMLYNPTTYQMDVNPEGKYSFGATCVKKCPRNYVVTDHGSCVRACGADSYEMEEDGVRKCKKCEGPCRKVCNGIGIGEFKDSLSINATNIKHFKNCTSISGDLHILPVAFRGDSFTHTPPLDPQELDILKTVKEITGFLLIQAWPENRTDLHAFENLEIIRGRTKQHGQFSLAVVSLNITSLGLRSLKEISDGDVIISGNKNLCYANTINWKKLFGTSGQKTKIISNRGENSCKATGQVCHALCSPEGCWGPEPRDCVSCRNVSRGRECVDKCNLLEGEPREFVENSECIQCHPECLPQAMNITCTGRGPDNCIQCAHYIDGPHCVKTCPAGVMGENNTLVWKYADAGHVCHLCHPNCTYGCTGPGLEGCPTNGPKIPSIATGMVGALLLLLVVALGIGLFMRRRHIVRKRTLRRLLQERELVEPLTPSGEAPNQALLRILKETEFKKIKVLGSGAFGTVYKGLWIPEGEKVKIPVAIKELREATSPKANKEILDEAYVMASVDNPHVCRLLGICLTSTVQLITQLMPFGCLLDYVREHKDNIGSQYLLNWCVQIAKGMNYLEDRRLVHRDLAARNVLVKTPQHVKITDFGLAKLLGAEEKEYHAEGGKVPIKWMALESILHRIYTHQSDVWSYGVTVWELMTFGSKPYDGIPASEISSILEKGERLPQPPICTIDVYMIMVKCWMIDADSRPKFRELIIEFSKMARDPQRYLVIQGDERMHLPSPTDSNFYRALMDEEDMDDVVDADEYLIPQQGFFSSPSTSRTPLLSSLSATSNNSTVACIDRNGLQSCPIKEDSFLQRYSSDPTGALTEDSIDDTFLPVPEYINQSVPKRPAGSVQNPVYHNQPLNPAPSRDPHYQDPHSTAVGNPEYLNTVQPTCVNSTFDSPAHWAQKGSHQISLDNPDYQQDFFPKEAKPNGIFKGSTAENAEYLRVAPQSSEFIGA
Chain of EGFR wild type (EGFR WT) (P00533 25-1210): as above

Row | Compound | IC50 (EGFR wild type (EGFR WT); [2]) [µM] | IC50 (ErbB2 WT; ErbB2 WT enzyme) [µM] | IC50 (EGFR; EGFR enzyme) [µM] | IC50 ([1]; ErbB2 YVMA phosphorylation) [µM] | IC50 (EGFR wild type (EGFR WT); [3]) [µM] | IC50 (ErbB2 WT; ErbB2 WT enzyme assay) [µM] | IC50 (EGFR; EGFR enzyme assay) [µM] | IC50 [1, 4] [µM]
1 | C=CC(=O)N1CCC(Oc2ccc3ncnc(Nc4ccc(Oc5cnn6c(C)cnc6c5)c(C)c4F)c3n2)CC1 [Example 55, 1-(4-((4-((2-fluoro-3-methyl-4-((3-methylimidazo[1,2-b]pyridazin-7-yl)oxy)phenyl)amino)pyrido[3,2-d]pyrimidin-6-yl)oxy)piperidin-1-yl)prop-2-en-1-one] | 0.93 | 2.04 | ≥ 10 | 0.0508 | – | – | – | –
2 | C=CC(=O)N1C[C@H]2C[C@@H]1CN2c1ccc2ncnc(Nc3cc(C)c(Oc4ccn5ncnc5c4)cc3F)c2n1 [Example 78, 1-((1R,4R)-5-(4-((4-([1,2,4]triazolo[1,5-a]pyridin-7-yloxy)-2-fluoro-5-methylphenyl)amino)pyrido[3,2-d]pyrimidin-6-yl)-2,5-diazabicyclo[2.2.1]heptan-2-yl)prop-2-en-1-one] | ≥ 5 | 0.448 | ≥ 10 | 0.145 | – | – | – | –
3 | C=CC(=O)N1CCN(c2ccc3ncnc(Nc4cc(C)c(Oc5ccn6ncnc6c5)cc4F)c3n2)CC1 [Example 79, 1-(4-(4-((4-([1,2,4]triazolo[1,5-a]pyridin-7-yloxy)-2-fluoro-5-methylphenyl)amino)pyrido[3,2-d]pyrimidin-6-yl)piperazin-1-yl)prop-2-en-1-one] | ≥ 5 | 0.104 | ≥ 10 | 0.0426 | – | – | – | –
4 | C=CC(=O)N1CCN(c2nc3c(Nc4ccc(Oc5ccc6cn(C)nc6c5)c(C)c4)ncnc3cc2OC)CC1 [Example 158, 1-(4-(7-methoxy-4-((3-methyl-4-((2-methyl-2H-indazol-6-yl)oxy)phenyl)amino)pyrido[3,2-d]pyrimidin-6-yl)piperazin-1-yl)prop-2-en-1-one] | 0.366 | 0.0391 | 0.321 | 0.0165 | – | – | – | –
5 | C=CC(=O)N1CC[C@H](c2ccc3ncnc(Nc4ccc(Oc5cnc6c(c5)ncn6C)c(Cl)c4)c3n2)CC1(C)C (racemic) [Example 272] | – | – | – | – | ≥ 5 | 0.124 | ≥ 10 | 0.0769
6 | C=CC(=O)N1CC2CCC(C1)N2c1ccc2ncnc(Nc3ccc(Oc4ccn5ncnc5c4)c(Cl)c3F)c2n1 [Example 445] | – | – | – | – | 0.0601 | 0.0047 | 0.0336 | 0.0057
7 | C=CC(=O)N1[C@@H]2CC[C@H]1[C@H](c1ccc3ncnc(Nc4ccc(Oc5ccn6ncnc6c5)c(C)c4)c3n1)C2 (single isomer, unassigned) [Example 233] | ≥ 5 | 0.121 | 4.88 | 0.0838 | – | – | – | –
8 | C=CC(=O)N1C[C@H]2C[C@H](c3ccc4ncnc(Nc5ccc(Oc6ccn7ncnc7c6)c(C)c5F)c4n3)C[C@H]2C1 [Example 200, 1-((3aR,5s,6aS)-5-(4-((4-([1,2,4]triazolo[1,5-a]pyridin-7-yloxy)-2-fluoro-3-methylphenyl)amino)pyrido[3,2-d]pyrimidin-6-yl)hexahydrocyclopenta[c]pyrrol-2(1H)-yl)prop-2-en-1-one] | ≥ 5 | 0.0162 | 2.78 | 0.0835 | – | – | – | –
9 | C=CC(=O)N1CC[C@H]2C[C@@H](c3ccc4ncnc(Nc5ccc(Oc6ccc7c(c6)ncn7C)c(C)c5F)c4n3)C[C@H]21 (racemic) [Example 133, rac-1-((3aR,5R,6aR)-5-(4-((2-fluoro-3-methyl-4-((1-methyl-1H-benzo[d]imidazol-5-yl)oxy)phenyl)amino)pyrido[3,2-d]pyrimidin-6-yl)hexahydrocyclopenta[b]pyrrol-1(2H)-yl)prop-2-en-1-one] | 3.78 | 0.0415 | 3.17 | 0.034 | – | – | – | –
10 | C=CC(=O)N1CC[C@@H]2[C@H](c3ccc4ncnc(Nc5cc(C)c(Oc6ccc7c(c6)ncn7C)cc5F)c4n3)CC[C@@H]21 (racemic) [Example 134, rac-1-((3aR,4R,6aS)-4-(4-((2-fluoro-5-methyl-4-((1-methyl-1H-benzo[d]imidazol-5-yl)oxy)phenyl)amino)pyrido[3,2-d]pyrimidin-6-yl)hexahydrocyclopenta[b]pyrrol-1(2H)-yl)prop-2-en-1-one] | ≥ 5 | 0.0863 | ≥ 10 | 0.222 | – | – | – | –
11 | C=CC(=O)N1CCC(Oc2ccc3ncnc(Nc4ccc(Oc5cnn6ccnc6c5)c(C)c4F)c3n2)CC1 [Example 56, 1-(4-((4-((2-fluoro-4-(imidazo[1,2-b]pyridazin-7-yloxy)-3-methylphenyl)amino)pyrido[3,2-d]pyrimidin-6-yl)oxy)piperidin-1-yl)prop-2-en-1-one] | 0.374 | 0.233 | 1.44 | 0.0197 | – | – | – | –
12 | CC#CC(=O)N1CCN(c2ccc3ncnc(Nc4ccc(Oc5ccn6ncnc6c5)c(Cl)c4F)c3n2)C[C@@H]1C(F)(F)F [Example 183, (R)-1-(4-(4-((4-([1,2,4]triazolo[1,5-a]pyridin-7-yloxy)-3-chloro-2-fluorophenyl)amino)pyrido[3,2-d]pyrimidin-6-yl)-2-(trifluoromethyl)piperazin-1-yl)but-2-yn-1-one] | 0.0793 | 0.0062 | 0.0733 | 0.0044 | – | – | – | –
13 | C=CC(=O)N1C2CCC1CN(c1ccc3ncnc(Nc4ccc(Oc5ccn6ncnc6c5)c(Cl)c4F)c3n1)C2 [Example 238, 1-(3-(4-((4-([1,2,4]triazolo[1,5-a]pyridin-7-yloxy)-3-chloro-2-fluorophenyl)amino)pyrido[3,2-d]pyrimidin-6-yl)-3,8-diazabicyclo[3.2.1]octan-8-yl)prop-2-en-1-one] | 0.0903 | 0.0117 | 0.114 | 0.0055 | – | – | – | –
14 | C=CC(=O)N1CCCN(c2nc3c(Nc4ccc(Oc5ccn6ncnc6c5)c(Cl)c4F)ncnc3cc2OC)CC1 [Example 153, 1-(4-(4-((4-([1,2,4]triazolo[1,5-a]pyridin-7-yloxy)-3-chloro-2-fluorophenyl)amino)-7-methoxypyrido[3,2-d]pyrimidin-6-yl)-1,4-diazepan-1-yl)prop-2-en-1-one] | 1.79 | 0.004 | 0.265 | 0.0383 | – | – | – | –
15 | C=CC(=O)N1CC[C@H]2C[C@@H]1CN2c1ccc2ncnc(Nc3ccc(Oc4ccc5c(c4)ncn5C)c(C)c3F)c2n1 [Example 67, 1-((1R,5S)-6-(4-((2-fluoro-3-methyl-4-((1-methyl-1H-benzo[d]imidazol-5-yl)oxy)phenyl)amino)pyrido[3,2-d]pyrimidin-6-yl)-2,6-diazabicyclo[3.2.1]octan-2-yl)prop-2-en-1-one] | ≥ 5 | 0.422 | ≥ 10 | 0.0358 | – | – | – | –
16 | C=CC(=O)N1CCC(Oc2ccc3ncnc(Nc4ccc(Oc5ccc6cn(C)nc6c5)c(F)c4)c3n2)CC1 [Example 12, 1-(4-((4-((3-fluoro-4-((2-methyl-2H-indazol-6-yl)oxy)phenyl)amino)pyrido[3,2-d]pyrimidin-6-yl)oxy)piperidin-1-yl)prop-2-en-1-one] | ≥ 5 | 1.03 | ≥ 10 | 0.193 | – | – | – | –
17 | C=CC(=O)N1CCC(c2ccc3ncnc(Nc4ccc(Oc5ccc6c(c5)ncn6C)c(C)c4)c3n2)C(C)C1 (stereo not drawn) [Example 125, 1-((3RS,4R*)3-methyl-4-(4-((3-methyl-4-((1-methyl-1H-benzo[d]imidazol-5-yl)oxy)phenyl)amino)pyrido[3,2-d]pyrimidin-6-yl)piperidin-1-yl)prop-2-en-1-one] | ≥ 5 | 0.0482 | 7.48 | 0.04 | – | – | – | –
18 | C=CC(=O)N1CCCN(c2ccc3ncnc(Nc4ccc(Oc5ccn6ncnc6c5)c(C)c4F)c3n2)CC1 [Example 100, 1-(4-(4-((4-([1,2,4]triazolo[1,5-a]pyridin-7-yloxy)-2-fluoro-3-methylphenyl)amino)pyrido[3,2-d]pyrimidin-6-yl)-1,4-diazepan-1-yl)prop-2-en-1-one] | ≥ 5 | 0.132 | 9.57 | 0.0661 | – | – | – | –

Results, then the compound that gave them:

Row | IC50 (EGFR wild type (EGFR WT); [2]) [µM] | IC50 (ErbB2 WT; ErbB2 WT enzyme) [µM] | IC50 (EGFR; EGFR enzyme) [µM] | IC50 ([1]; ErbB2 YVMA phosphorylation) [µM] | IC50 (EGFR wild type (EGFR WT); [3]) [µM] | IC50 (ErbB2 WT; ErbB2 WT enzyme assay) [µM] | IC50 (EGFR; EGFR enzyme assay) [µM] | IC50 [1, 4] [µM] | Compound
19 | – | – | – | – | ≥ 5 | 0.239 | ≥ 10 | 0.241 | C=CC(=O)N1C[C@H]2CC[C@@H]1CN2c1ccc2ncnc(Nc3cc(Cl)c(Oc4ccn5ncnc5c4)cc3F)c2n1 [Example 330]
20 | – | – | – | – | ≥ 5 | 10 | ≥ 10 | 0.0334 | C=CC(=O)N1CCN(c2ccc3ncnc(Nc4cc(C)c(Oc5ccn6ncnc6c5)cc4F)c3n2)C[C@H]1C(C)(C)C [Example 310]
21 | – | – | – | – | 0.124 | 0.0046 | 0.0864 | 0.0038 | C=CC(=O)N1C[C@@H]2CC[C@H]1CN2c1ccc2ncnc(Nc3cc(Cl)c(Oc4ccn5ncnc5c4)cc3F)c2n1 [Example 321]
22 | – | – | – | – | 1.45 | 0.0231 | 1.97 | 0.0616 | CC#CC(=O)N1C[C@@H]2C[C@H]1CN2c1ccc2ncnc(Nc3ccc(Oc4ccn5ncnc5c4)c(Cl)c3F)c2n1 [Example 316]
23 | – | – | – | – | 0.0783 | 0.0456 | 0.436 | 0.0094 | C=CC(=O)N1C[C@@H]2CC[C@H]1CN2c1ccc2ncnc(Nc3ccc(Oc4cnc5c(c4)ncn5C)c(C)c3F)c2n1 [Example 320]
24 | – | – | – | – | ≥ 5 | 0.113 | ≥ 10 | 0.529 | C=C(C)C(=O)N1CCN(c2ccc3ncnc(Nc4ccc(Oc5ccn6ncnc6c5)c(C)c4F)c3n2)CC1(C)C [Example 341]
25 | – | – | – | – | ≥ 5 | 0.212 | ≥ 10 | 0.0505 | C=CC(=O)N1C[C@H]2CC[C@@H]1[C@@H](c1ccc3ncnc(Nc4cc(C)c(Oc5cnc6c(c5)ncn6C)cc4F)c3n1)C2 [Example 425]
26 | – | – | – | – | ≥ 5 | 0.0594 | 5.55 | 0.124 | C=CC(=O)N1CC[C@H](c2ccc3ncnc(Nc4ccc(Oc5ccn6ncnc6c5)c(C)c4F)c3n2)CC1(C)C (racemic) [Example 314]

— US12447153B2, “HER2 mutation inhibitors” (Array BioPharma Inc., priority 2021, dated 2025)
